Experiments:
[1] = tested on: transformant cell line 61-33γ (host YB2/0) producing a chimeric anti-GD3 antibody; assay: Batch culture of antibody-producing cells in Q10-containing serum-free medium (Example 1); format: cell-based, rat; settings: Q10-added culture, 500 μM Q10 (added as SANOMIT), batch culture 6 days
Method: The following batch culture was performed with transformant cell line 61-33γ (FERM BP-7325, WO 01/29246) which was obtained by using hybridoma cell line YB2/0 derived from a rat myeloma cell line as a host cell and produces a chimeric anti-GD3 antibody. […]
From the start to the completion of culturing, the liquid culture was sampled once a day, to assay the viable cell density (cells/mL) and the antibody concentration (μg/mL) respectively. Further, the viable cell density was measured by a dye-exclusion method using 0.4% trypan blue solution.
The cumulative number of viable cells is shown as the total sum of the viable cell density multiplied by the time as elapsed. In the present Example, the viable cell density was measured once a day, and the cumulative number of viable cells was shown as value of the additive sum of the individual viable cell densities measured each time (cells/mL×days).
Additionally, the specific antibody production rate and the relative specific antibody production rate were calculated respectively by the following equations. […]

[2] = tested on: transformant cell line 61-33γ (host YB2/0) producing a chimeric anti-GD3 antibody; assay: Fed-batch culture of antibody-producing cells in Q10-containing medium (Example 2); format: cell-based, rat; settings: Q10-added culture, 50 μmol/L Q10 dissolved in Tween 80, fed-batch culture 11 days
Method: The following fed-batch culture was performed with transformant cell line 61-33γ (FERM BP-7325) which was obtained by using hybridoma cell line YB2/0 derived from a rat myeloma cell line as a host cell and produces a chimeric anti-GD3 antibody.
In a T-225 cm^2 flask charged with 30 mL of a serum-free medium (Hybridoma-SFM; manufactured by Invitrogen Corporation), the cells were inoculated to a cell density of 3×10^5 cells/mL, followed by stationary culture in a 5%-CO2 incubator at 37° C. for 3 days.
On the completion of culturing, the resulting cells were inoculated in a 1-liter spinner flask (manufactured by Shibata Hario, Co., Ltd.) containing 0.7 liter of Hybridoma-SFM to 3×10^5 cells/ml. While adjusting the liquid culture to pH 7.1 ±0.1 and the dissolved oxygen concentration to 3±0.2 ppm, culturing was carried out at 37° C. for 11 days under the condition of stirring at 50 rpm. Aeration was carried out via a porous polytetrafluoroethylene tube arranged in the spinner flask, and a mixture gas of air, oxygen and carbon dioxide was supplied. Additionally, the pH was controlled by changing the ratio of air and carbon dioxide and by feeding 1 mol/L sodium carbonate solution. Furthermore, the dissolved oxygen concentration was controlled by changing the ratio of air and oxygen. […]

Structure (SMILES): COC1=C(OC)C(=O)C(C/C=C(\C)CC/C=C(\C)CC/C=C(\C)CC/C=C(\C)CC/C=C(\C)CC/C=C(\C)CC/C=C(\C)CC/C=C(\C)CC/C=C(\C)CCC=C(C)C)=C(C)C1=O [Q10]
- cumulative number of cells on the completion of culturing ([1]; Q10-free culture 1.71×10^7): 1.51×10^7 cells/mL×days
- relative specific antibody production rate ([1]; Q10-free culture = 100%): 166.3%
- cumulative number of cells on the completion of culturing ([2]; Q10-free culture 2.97×10^7): 3.98×10^7 cells/ml×days
- relative specific antibody production rate ([2]; Q10-free culture = 100%): 137.1%

Reference: patent US20050175599A1, “Process for producing substance” (Kyowa Hakko Kogyo Co., Ltd., priority 2001, published 2005)
